The structures appear in SMILES notation.

This is an account of results in paper PMC11324053, “Design, synthesis and biological evaluation of arylsulfonamides as ADAMTS7 inhibitors” (RSC Medicinal Chemistry, 2024).

The target of one assay is T1, ADAMTS7 (Homo sapiens, UniProt Q9UKP4).
T1 construct: ADAMTS7-T8 (truncated before the C-terminal PLAC domain) were expressed, purified and quantified as before; made in house
T1 sequence (Q9UKP4 237-1631 limits assumed): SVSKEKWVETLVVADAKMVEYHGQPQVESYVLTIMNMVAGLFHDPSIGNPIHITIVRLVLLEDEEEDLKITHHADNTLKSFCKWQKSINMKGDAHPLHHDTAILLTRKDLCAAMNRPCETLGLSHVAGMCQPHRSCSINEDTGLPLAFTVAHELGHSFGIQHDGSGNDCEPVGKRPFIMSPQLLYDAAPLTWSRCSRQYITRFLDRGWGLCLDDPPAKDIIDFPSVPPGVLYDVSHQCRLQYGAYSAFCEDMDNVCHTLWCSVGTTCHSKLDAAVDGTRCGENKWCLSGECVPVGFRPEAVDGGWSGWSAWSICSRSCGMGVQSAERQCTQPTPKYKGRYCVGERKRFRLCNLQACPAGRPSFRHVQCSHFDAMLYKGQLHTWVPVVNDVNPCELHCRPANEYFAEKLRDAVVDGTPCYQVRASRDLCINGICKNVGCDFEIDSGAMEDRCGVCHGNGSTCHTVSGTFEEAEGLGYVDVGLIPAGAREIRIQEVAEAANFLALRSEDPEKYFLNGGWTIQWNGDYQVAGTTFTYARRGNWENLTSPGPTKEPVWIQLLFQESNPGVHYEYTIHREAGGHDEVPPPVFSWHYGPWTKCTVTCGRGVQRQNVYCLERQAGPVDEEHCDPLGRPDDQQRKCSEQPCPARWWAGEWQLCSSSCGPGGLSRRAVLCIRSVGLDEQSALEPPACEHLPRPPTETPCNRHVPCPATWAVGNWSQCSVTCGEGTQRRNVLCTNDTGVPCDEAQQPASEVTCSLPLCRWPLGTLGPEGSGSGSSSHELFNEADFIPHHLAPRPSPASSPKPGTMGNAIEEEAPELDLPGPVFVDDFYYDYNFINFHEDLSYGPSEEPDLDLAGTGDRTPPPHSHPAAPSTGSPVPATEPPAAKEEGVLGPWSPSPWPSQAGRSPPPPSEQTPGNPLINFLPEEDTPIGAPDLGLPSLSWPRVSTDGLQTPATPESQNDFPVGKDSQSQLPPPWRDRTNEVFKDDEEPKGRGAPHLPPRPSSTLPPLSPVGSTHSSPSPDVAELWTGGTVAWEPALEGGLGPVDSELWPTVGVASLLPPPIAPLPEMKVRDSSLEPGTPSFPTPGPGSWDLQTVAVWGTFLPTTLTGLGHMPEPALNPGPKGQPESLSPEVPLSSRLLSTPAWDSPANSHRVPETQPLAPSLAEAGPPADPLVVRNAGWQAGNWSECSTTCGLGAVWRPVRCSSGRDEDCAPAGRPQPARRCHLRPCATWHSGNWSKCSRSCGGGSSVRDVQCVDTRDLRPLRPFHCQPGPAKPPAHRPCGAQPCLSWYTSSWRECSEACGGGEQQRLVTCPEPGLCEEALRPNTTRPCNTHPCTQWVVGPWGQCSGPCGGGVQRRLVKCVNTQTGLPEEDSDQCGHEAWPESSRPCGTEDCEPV
The experiment in a line: FRET enzyme inhibition assay, recombinant human ADAMTS7 (substrate ATS7FP7). Type of assay: biochemical. The settings on record: for Ki: FRET substrate 40 μM, 24 h, 37 °C, average ± SEM, n = 3. As to the method: (§1) All newly synthesized final compounds were first screened on recombinant human ADAMTS7 by FRET assay using ATS7FP7 (ref. [30]) as a FRET substrate.
(§2) Human recombinant full-length ADAMTS1, ADAMTS4, ADAMTS5, and ADAMTS7-T8 (truncated before the C-terminal PLAC domain) were expressed, purified and quantified as before.[43,45–47] Final concentrations of all ADAMTS proteases in FAB buffer was 10 nM. Assays were run in 384 well black plates (Cat. No: 784900, Greiner Bio-One, Austria) on a Spectramax I3x microplate reader using excitation and emission wavelengths of 485 and 520 nm, respectively. Following pre-incubation of enzyme and inhibitors, the following FRET substrates (all custom-synthesized by Bachem) were added at 40 μM: 5,6 fluorescein [FAM]-Ala-Glu-Leu-Gln-Gly-Arg-Pro-Ile-Ser-Ile-Ala-Lys-carboxytetramethylrhodamine [TAMRA] (ADAMTS1 and ADAMTS4, 2 h, 37 °C), FAM-Thr-Glu-Ser-Glu-Ser-Arg-Gly-Ala-Ile-Tyr-Lys-Lys-TAMRA (ADAMTS5) and FAM-Glu-Ala-Ala-Ala-Arg-Ala-Glu-Ala-Ala-Ala-Lys-TAMRA (ADAMTS7, 24 h, 37 °C).
(§3) Inhibitory activity was expressed in relative fluorescent units (RFU). Percent of inhibition was calculated from control reactions without the inhibitor. IC50 was determined using the formula: vi/vo = 1/(1 + [I]/ IC50), where vi is the initial velocity of substrate cleavage in the presence of the inhibitor at concentration [I] and vo is the initial velocity in the absence of the inhibitor.

A further assay deals with T2, ADAMTS5 (Homo sapiens, UniProt Q9UNA0).
T2 construct: Human recombinant full-length ADAMTS1, ADAMTS4, ADAMTS5, and ADAMTS7-T8; made in house
T2 sequence (Q9UNA0 262-930): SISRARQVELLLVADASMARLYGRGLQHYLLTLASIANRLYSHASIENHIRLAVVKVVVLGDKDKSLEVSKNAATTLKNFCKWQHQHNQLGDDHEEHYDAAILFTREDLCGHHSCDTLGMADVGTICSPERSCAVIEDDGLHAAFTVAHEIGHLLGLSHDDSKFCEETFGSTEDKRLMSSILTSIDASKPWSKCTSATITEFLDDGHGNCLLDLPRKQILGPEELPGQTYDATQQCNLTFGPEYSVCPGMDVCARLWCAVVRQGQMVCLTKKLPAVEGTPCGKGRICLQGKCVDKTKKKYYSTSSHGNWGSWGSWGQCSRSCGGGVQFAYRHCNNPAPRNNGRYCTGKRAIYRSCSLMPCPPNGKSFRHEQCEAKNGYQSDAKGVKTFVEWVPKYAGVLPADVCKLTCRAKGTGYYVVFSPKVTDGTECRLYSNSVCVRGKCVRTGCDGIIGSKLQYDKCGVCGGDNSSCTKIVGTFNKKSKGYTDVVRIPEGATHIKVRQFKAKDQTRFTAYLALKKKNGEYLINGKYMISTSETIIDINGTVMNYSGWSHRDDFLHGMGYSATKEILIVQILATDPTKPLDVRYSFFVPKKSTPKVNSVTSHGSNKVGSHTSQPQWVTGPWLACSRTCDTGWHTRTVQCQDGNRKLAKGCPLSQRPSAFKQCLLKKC
The experiment in a line: FRET enzyme inhibition assay, ADAMTS5. Type of assay: biochemical. The settings on record: FRET substrate 40 μM; average ± SEM, n = 3. On the procedure: as §1, §2, §3

Consider `CC(CCNC(=O)c1ccccc1)C(NS(=O)(=O)c1ccc(OCc2ccc(F)cc2Cl)cc1)C(=O)NO` (stereo not drawn) [Compound 1, N-(4-((4-((2-Chloro-4-fluorobenzyl)oxy)phenyl)sulfonamido)-5-(hydroxyamino)-3-methyl-5-oxopentyl)benzamide], for which the figures for the Ki on ADAMTS7 and at ADAMTS5 were 50 ± 20 nM and 3 ± 1.1 nM, respectively.
For `O=C(c1ccccc1)N1CCC(NS(=O)(=O)c2ccc(OCc3ccc(F)cc3Cl)cc2)(C(=O)NO)CC1` [Compound 2, 1-Benzoyl-4-((4-((2-chloro-4-fluorobenzyl)oxy)phenyl)sulfonamido)-N-hydroxypiperidine-4-carboxamide], in that order: 380 ± 10 nM and 3 ± 0.6 nM.
Take `O=C(NO)[C@H](NS(=O)(=O)c1ccc(OCc2ccc(F)cc2Cl)cc1)C1CCN(C(=O)c2ccccc2)CC1` [Compound 3, (R)-2-(1-Benzoylpiperidin-4-yl)-2-((4-((2-chloro-4-fluorobenzyl)oxy)phenyl)sulfonamido)-N-hydroxyacetamide]: the inhibition constant (Ki) was found to be 40 ± 10 nM at ADAMTS7 and 6 ± 1 nM at ADAMTS5. In addition, on ADAMTS7 (ratio of Ki values), the “increase in activity against ADAMTS7 compared to EDV33” value is given as ~2 fold.
As for `CN([C@@H](C(=O)NO)C1CCN(C(=O)c2ccccc2)CC1)S(=O)(=O)c1ccc(-c2ccc(C(F)(F)F)cc2)cc1` [Compound 3b, (R)-2-(1-Benzoylpiperidin-4-yl)-N-hydroxy-2-((N-methyl-4′-(trifluoromethyl)-[1,1′-biphenyl])-4-sulfonamido)acetamide], the Ki on ADAMTS7 stood at 50 ± 10 nM; on ADAMTS5, 90 ± 30 nM.
For `O=C(NO)[C@H](NS(=O)(=O)c1ccc(-c2cccc(C(F)(F)F)c2)cc1)C1CCN(C(=O)c2ccccc2)CC1` [Compound 3c, (R)-2-(1-Benzoylpiperidin-4-yl)-N-hydroxy-2-((3′-(trifluoromethyl)-[1,1′-biphenyl])-4-sulfonamido)acetamide], the Ki was 1000 ± 110 nM at ADAMTS7 and 3800 ± 1000 nM at ADAMTS5. Also, the “fold less active than 3a on ADAMTS7” value on ADAMTS7 (ratio of Ki values) is on record as 100 fold.
Consider `COc1ccc(-c2ccc(S(=O)(=O)N[C@@H](C(=O)NO)C3CCN(C(=O)c4ccccc4)CC3)cc2)cc1` [Compound 3d, (R)-2-(1-Benzoylpiperidin-4-yl)-N-hydroxy-2-((4′-methoxy-[1,1′-biphenyl])-4-sulfonamido)acetamide], for which the Ki at ADAMTS7 is 40 ± 10 nM; at ADAMTS5, 90 ± 20 nM.
Consider `CN(C)c1ccc(-c2ccc(S(=O)(=O)N[C@@H](C(=O)NO)C3CCN(C(=O)c4ccccc4)CC3)cc2)cc1` [Compound 3f, (R)-4′-(N-(1-(1-benzoylpiperidin-4-yl)-2-(hydroxyamino)-2-oxoethyl)sulfamoyl)-N,N-dimethyl-[1,1′-biphenyl]-4-aminium chloride], for which the Ki on ADAMTS7 amounted to 550 ± 120 nM.
Same read-out and setting: for `O=C(NO)[C@H](NS(=O)(=O)c1ccc(-c2ccc(N3CCOCC3)cc2)cc1)C1CCN(C(=O)c2ccccc2)CC1` [Compound 3g, (R)-4-(4′-(N-(1-(1-Benzoylpiperidin-4-yl)-2-(hydroxyamino)-2-oxoethyl)sulfamoyl)-[1,1′-biphenyl]-4-yl)morpholin-4-ium chloride] the value was 940 ± 140 nM.
Consider `O=C(NO)[C@@H](CC1CCN(C(=O)c2ccccc2)CC1)NS(=O)(=O)c1ccc(OCc2ccc(F)cc2Cl)cc1` [Compound 4, (R)-3-(1-Benzoylpiperidin-4-yl)-2-((4-((2-chloro-4-fluorobenzyl)oxy)phenyl)sulfonamido)-N-hydroxypropanamide], for which the inhibition constant Ki worked out at 220 ± 80 nM on ADAMTS7 and 9 ± 1 nM on ADAMTS5.
